“And” between values parts separate entries of the source, which are not always exact repeats. Equal entries are not always repeated. Where two headings read alike, the source gives them in different places.
What was measured:
HUVECs [1] = experiment: Matrigel tube formation assay; format: cell-based, Human; conditions: Homo sapiens, HUVEC, 0.5 μM, 6 h, vs control, read-out: inhibitory rates of tube formation
Experimental: In the later stages of angiogenesis, tube formation of ECs is also an important process. Thus, a Matrigel tube formation assay was applied to assess the ability of HUVECs to form ECs vascular structures which is believed to be significant in new vessel formation.
Figure 4 Effects on the HUVECs tube formation. (I) HUVECs (1 × 10^4 cells) suspended in DMEM containing each compound (0.5 or 1 or 2 μM) were added to the Matrigel. Control was treated with DMEM alone. After incubation for 6 h at 37 °C, capillary networks were photographed and quantified (Olympus CKX41, magnification: 100×); (II) Rates of the HUVECs tube formation. The number of intact tubes was counted in five randomly chosen regions and expressed as the percentage of the control. The results were expressed as mean ±SD. ** p < 0.01; *** p < 0.005 compared with control.
Matrigel was dissolved at 4 °C overnight. Each well of prechilled 96-well plates was coated with 50 μL of Matrigel, incubated and solidified at 37 °C for 45 min. After removing the unsolidified fluid, HUVECs at the density of 1 × 10^4 were cultured in DMEM containing the indicated concentrations of compounds for 6 h. Controls were treated with the DMEM alone. Images were digitally captured and quantitatively analyzed (Olympus). The numbers and line lengths of the circular tubules formed by the cells were calculated manually. The values were observed from five randomly selected fields.

zebrafish embryos [2] = experiment: Zebrafish toxicity: heart rates; format: in vivo
Experimental: (§1) To investigate the toxicity of these four compounds, the heart rates and the mortality rates of zebrafish embryos were recorded (Table 2 and Table 3). The heart rate of zebrafish in the control group was 117 beats/min.
(§2) Using transgenic fli-1: enhanced GFP zebrafish embryos, we investigated the effects of all compounds on angiogenesis. Zebrafish embryos were generated by natural pairwise mating and raised at 28.5 °C in embryo water (0.2 g/L of Instant Ocean Salt in distilled water). At about 6 h post fertilization (hpf), the embryos were sorted in the 6-well plate (six embryos/well), removing dead and unhealthy embryos. Then the embryos were treated with the indicated concentrations of compounds which were added into embryo water. After incubation for 24 or 48 h, the embryos were anesthetized using 0.05% 2-phenoxyethanol in embryo water, quantified and photographed.

HUVEC = experiment: MTT assay, cell proliferation; format: cell-based, Human; conditions: Homo sapiens, 24 h, read-out: IC50, inhibition of cell proliferation
Experimental: Inhibiting the proliferation of ECs is another important strategy for antiangiogenesis. […] As the exposure time of these derivatives was 24 h in the migration assay and 6 h in the tube formation assay, the effect of the incubation for 24 h in the presence of these compounds on HUVECs proliferation was then tested. Cell viability was assessed by the MTT method. We can see from Table 4 that these compounds had different antiproliferative activities.
(§3) HepG2, HCT116, HeLa and LO2 cell lines were cultured in DMEM containing 10% fetal bovine serum (FBS), 100 IU/mL penicillin and 100 µg/mL streptomycin; A549 and K562 cell lines were cultured in RPMI 1640 medium containing 10% fetal bovine serum (FBS), 100 IU/mL penicillin and 100 µg/mL streptomycin; Human umbilical vein endothelial cells (HUVECs) were cultured on gelatin-coated culture flasks in M-199 medium with 20% fetal bovine serum (FBS), 2 ng/mL VEGF, 10 ng/mL basic FGF, 100 IU/mL penicillin, and 100 μg/mL streptomycin; all of them were obtained from the American Type Culture Collection (ATCC) and all cell lines were incubated in an atmosphere of 5% CO2 at 37 °C.
(§4) Cells were treated with various concentrations of compound in 96-well culture plates for 24 h in final volumes of 200 μL (5 × 10^3 cells/well). Then 20 μL of MTT solution (5 mg/mL) was added to each well, and cells were incubated for an additional 3 h. Then the medium was carefully removed, and precipitates were dissolved in 150 μL of DMSO, shaken mechanically for 30 min, and then absorbance values at a wavelength of 570 nm were taken on a spectrophotometer (Molecular Devices, Sunnyvale, CA, USA). Values were calculated using percentage of growth versus untreated control. The IC50 was defined as the concentration that caused 50% inhibition of cell proliferation, and was calculated by SAS statistical software.

LO2 = experiment: MTT assay, cytotoxicity; format: cell-based; conditions: Homo sapiens, L02, 24 h, read-out: IC50, inhibition of cell proliferation
Experimental: as §3, §4

A549 = experiment: MTT assay, cell proliferation; format: cell-based; conditions: Homo sapiens, 24 h, read-out: IC50, inhibition of cell proliferation
Experimental: as §3, §4

HeLa = experiment: MTT assay, cell proliferation; format: cell-based; conditions: Homo sapiens, 24 h, read-out: IC50, inhibition of cell proliferation
Experimental: as §3, §4

HCT116 = experiment: MTT assay, cell proliferation; format: cell-based; conditions: Homo sapiens, HCT-116, 24 h, read-out: IC50, inhibition of cell proliferation
Experimental: as §3, §4

HepG2 = experiment: MTT assay, cell proliferation; format: cell-based; conditions: Homo sapiens, 24 h, read-out: IC50, inhibition of cell proliferation
Experimental: as §3, §4

K562 = experiment: MTT assay, cell proliferation; format: cell-based; conditions: Homo sapiens, 24 h, read-out: IC50, inhibition of cell proliferation
Experimental: as §3, §4

[3] = test system: transgenic fli-1: enhanced GFP zebrafish embryos; experiment: Zebrafish embryo assay: antiangiogenic effects; format: in vivo, zebrafish (Danio rerio); conditions: zebrafish embryos; for inhibition in vivo at 1 µM / inhibition in vivo at 2.5 µM / inhibition in vivo at 10 µM: Danio rerio
Experimental: As stated previously, zebrafish is regarded as a powerful tool in the study of human diseases. […] In this study, all GA derivatives were incubated with the transgenic friend leukemia integration-1 (fli-1): enhanced GFP zebrafish embryos which carried a fli-1 promoter which can drive the expression of GFP in the whole endothelium.
Figure 1 Effects on neovascularization in zebrafish embryos. The transgenic fli-1: enhanced GFP zebrafish embryos in embryo water (0.2 g/L of instant ocean salt in distilled water) incubated with 1 μM of compounds at 6 h postfertilization (hpf) for 24 h. Zebrafish embryos were imaged (Imager.Z1, magnification: left, 40×; right, 100×).
as §2, with “Zebrafish embryos were generated by natural pairwise mating and raised at 28.5 °C in embryo water (0.2 g/L of Instant Ocean Salt in distilled water).” left out

zebrafish embryos [4] = experiment: Zebrafish toxicity: mortality rate; format: in vivo, zebrafish (Danio rerio)
Experimental: as §1, §2

HUVECs [5] = experiment: Wound-healing migration assay; format: cell-based, Human; conditions: 1 μM, 24 h, control = 100%
Description: The migration of ECs is an important step of angiogenesis. The continuity of vascular ECs is the most important factor in preserving vessel wall function. Migration of ECs is essential to the recovery of this continuity after vascular ECs injury. […] As illustrated in Figure 3(I), the HUVECs migrated into the wound area actively (between the two white dash lines) under the compound-free condition (control).
Figure 3 Effects on the HUVECs migration. (I) HUVECs suspended in serum-free Dulbecco’s Modified Eagle Medium (DMEM) containing compounds (0.25 or 0.5 or 1 μM) for 24 h were photographed under a phase contrast microscopy (Olympus CKX41, magnification: 50×). Control was treated with serum-free DMEM which was consided as resulting in 100%; (II) Migration rates of compounds on the HUVECs. Data represented the mean standard deviation (SD) from three independent experiments. *** p < 0.005compared with control.
HUVECs were seeded in 6-well plates precoated with 0.1% gelatin, and grown overnight to confluence. The monolayer cells were wounded by scratching with 10 μL pipet tips and washed twice with serum-free DMEM (Dulbecco’s modified eagle medium) to remove the nonadherent cells and then replaced by serum-free DMEM with the indicated concentrations of compounds for 24 h. Images were taken at 0 h and 24 h independently after incubation at 37 °C, 5% CO2 environment. The migrated HUVECs were manually counted. The values were observed from four randomly selected fields.

[6] = transgenic fli-1:enhanced GFP (fli-1:EGFP) line, zebrafish, in vivo, 2.5 μM
[7] = transgenic fli-1:enhanced GFP (fli-1:EGFP) line, zebrafish, in vivo, 10 μM
[8] = vs vehicle (0.05% DMSO), read-out: Anti-angiogenic phenotype
[9] = 2.5 μM, vs vehicle (0.05% DMSO), read-out: Anti-angiogenic phenotype
[10] = 10 μM, vs vehicle (0.05% DMSO), read-out: Anti-angiogenic phenotype
[11] = 2.5 µM and 10 µM, zebrafish embryos

| SMILES | inhibition at 0.5 µM (HUVECs [1]) | Heart rates of zebrafish (zebrafish embryos [2]; [6]) | Heart rates of zebrafish (zebrafish embryos [2]; [7]) | IC50 (HUVEC) | IC50 (LO2) | IC50 (A549) | IC50 (HeLa) | IC50 (HCT116) | IC50 (HepG2) | IC50 (K562) | inhibition in vivo at 1 µM ([3]; read-out: antiangiogenic rates) | inhibition in vivo at 1 µM [3, 8] | inhibition in vivo at 2.5 µM [3, 9] | inhibition in vivo at 10 µM [3, 10] | Mortality rates (zebrafish embryos [4]; 1 μM, zebrafish) | Mortality rates (zebrafish embryos [4]; [11]) | Mortality rates (zebrafish embryos [4]; 2.5 μM, zebrafish) | Mortality rates (zebrafish embryos [4]; 10 μM, zebrafish) | migratory rates (HUVECs [5]) | Heart rates of zebrafish (zebrafish embryos [2]; 2.5 μM, control 117 beats/min) | further results |
| --- | --- | --- | --- | --- | --- | --- | --- | --- | --- | --- | --- | --- | --- | --- | --- | --- | --- | --- | --- | --- | --- |
| CC(C)=CCCC1(C)C=Cc2c(O)c3c(c(CC=C(C)C)c2O1)OC12C(=CC4CC1C(C)(C)OC2(C/C=C(/C)C(=O)Nc1nccs1)C4=O)C3=O (stereo not shown) [Compound 32, Thiazol-2-gambogamide] | 39.1% | 60 ± 4.36 beats/min | 54 ± 3.68 beats/min | 1090 ± 90 nM | 1700 ± 480 nM | 740 ± 40 nM | 1080 ± 100 nM | 450 ± 10 nM | 810 ± 60 nM | 400 ± 20 nM | 25 to 50% | 25 to 50% | 50 to 75% | > 75% | 0% | less than 20% | 6.7 ± 5.77 % | 16.7 ± 5.77 % |  |  |  |
| CC(C)=CCC[C@]1(C)C=Cc2c(O)c3c(c(CC=C(C)C)c2O1)O[C@]12C(=C[C@@H]4C[C@H]1C(C)(C)O[C@@]2(C/C=C(/C)C(=O)O)C4=O)C3=O [GA, Gambogic acid] | 26.1% |  |  | 270 ± 10 nM | 890 ± 80 nM | 940 ± 30 nM | 1140 ± 60 nM | 590 ± 30 nM | 840 ± 40 nM | 490 ± 30 nM | 25 to 50% | 25 to 50% |  |  | 20 ± 0.00% |  | 73.3% | 100% | 2.2% | Dead ^b | Heart rates of zebrafish (zebrafish embryos [2]; 1 μM, control 117 beats/min): 36 beats/min and 36 ± 3.32 beats/min; Heart rates of zebrafish (zebrafish embryos [2]; 10 μM, control 117 beats/min): Dead; Anti-angiogenic phenotype ([3]; 2.5 μM, vs vehicle (0.05% DMSO)): Dead ^b; Anti-angiogenic phenotype ([3]; 10 μM, vs vehicle (0.05% DMSO)): Dead; Mortality rates (zebrafish embryos [4]; 2.5 μM, zebrafish, listed as A): 73.3 ± 5.77% |
| CC(=O)Nc1ccc(NC(=O)/C(C)=C\CC23OC(C)(C)C4CC(C=C5C(=O)c6c(O)c7c(c(CC=C(C)C)c6OC542)OC(C)(CCC=C(C)C)C=C7)C3=O)cc1 (stereo not shown) [Compound 35, N-(4-acetamidophenyl) gambogamide] | 37% |  |  | 200 ± 10 nM | 1170 ± 410 nM | 500 ± 50 nM | 490 ± 20 nM | 400 ± 20 nM | 270 ± 50 nM | 260 ± 10 nM | 25 to 50% | 25 to 50% | 50 to 75% | > 75% | 3.3 ± 5.77 % | less than 20% | 10 ± 0.00 % | 16.7 ± 5.77 % | 3.6% | 57 ± 2.61 beats/min | heart rates relative to control group (zebrafish embryos [2]; 2.5 µM and 10 µM, zebrafish): about half of the control group; Heart rates of zebrafish (zebrafish embryos [2]; 10 μM, control 117 beats/min): 45 ± 4.95 beats/min |
| CC(=O)Nc1ccc(OC(=O)/C(C)=C\CC23OC(C)(C)C4CC(C=C5C(=O)c6c(O)c7c(c(CC=C(C)C)c6OC542)OC(C)(CCC=C(C)C)C=C7)C3=O)cc1 (stereo not shown) [Compound 4, 4-Acetamidephenyl gambogate] | 43.5% | 80 ± 5.31 beats/min | 54 ± 4.00 beats/min | 1170 ± 120 nM | 830 ± 30 nM | 950 ± 90 nM | 1340 ± 40 nM | 480 ± 40 nM | 1100 ± 60 nM | 410 ± 20 nM | 25 to 50% | 25 to 50% | 50 to 75% | > 75% | 0% | less than 20% | 6.7 ± 5.77 % | 20 ± 0.00 % |  |  |  |

From article PMC6268492, “Synthesis and Antiangiogenic Activity of Novel Gambogic Acid Derivatives” (Molecules, 2012)
